Values of other authors as cited in patent US20150209310A1, “NACA FOR THE TREATMENT OF CHRONIC OR LOW IMPACT BRAIN TRAUMA” (Brighton Biotech, Inc., priority 2014, published 2015).

Conditions: background statement

CC(=O)N[C@@H](CS)C(=O)O [NAC, N-acetyl-L-cysteine]
crossing of the blood-brain barrier: inability to cross the blood-brain barrier
